Consider 93 compounds from PubChem BioAssay AID652239 (Broad Institute, 2013).

“And” between values parts separate entries of the source, which are not always exact repeats. Equal values may be shown once. The source made the active and inactive calls. No rule for the calls is given here.

The first experiment deals with V. cholerae BH1578 lux luminescence induction, 6 h. The experiment is described as follows: V. cholerae BH1578 lux luminescence induction, luxS cqsA deficient, confirmatory dose response (AID 652239).
Settings: not given
On to `O=c1ncn(-c2ccccc2)c2ccccc12`, for which the AC40 is > 80 µM (inactive). For `O=C(Nc1nnc(-c2ccc3c(c2)OCCO3)o1)C1CCCCC1`, the AC40 was 7.31 µM and 2.33 µM. `COc1ccc2cc3c(NC(=O)c4ccco4)nn(C)c3nc2c1`: the AC40 is 3.82 µM.

Take `Cn1nc(NC(=O)c2ccco2)c2cccnc21`: the AC40 was 22.2 µM. On the same count and under the same terms, in the case of `CCn1nnnc1NCc1ccc(C(C)C)cc1` it was 0.563 µM; in that of `O=c1ncn(-c2cccc(Cl)c2)c2ccccc12`, 14.1 µM and 31 µM. The same measure, in the same setting: in the case of `O=C(Cc1ccc(-c2ccccc2)cc1)NC1CCC1` it was 1.26 µM. The same measure, in the same setting: in the case of `CCc1ccc2cc3c(NC(=O)c4ccco4)nn(C)c3nc2c1` it was 58.9 µM. Turning to `Cn1nc(NC(=O)c2ccco2)c2cc3ccccc3nc21`, the AC40 was 5.43 µM. Same read-out and setting: in the case of `Cc1cc(F)cc2nc3c(cc12)c(NC(=O)c1ccco1)nn3C` it was 89.6 µM. Same read-out and setting: in the case of `O=c1ncn(-c2cccc(F)c2)c2ccccc12` it was 33.8 µM; in that of `Cc1cccc(-n2cnc(=O)c3ccccc32)c1`, 75.9 µM; in that of `Cc1ccc2cc3c(NC(=O)c4cccs4)nn(C)c3nc2c1`, > 80 µM (inactive). In the case of `Cc1cc(F)c2cc3c(NC(=O)c4ccco4)nn(C)c3nc2c1`, the AC40 was > 100 µM (inactive). On the same count and under the same terms, in the case of `CCCCCCCCCC(=O)[C@H](O)CC` (racemic) it was 14.1 µM.

As for `Cc1ccc2cc3c(NC(=O)c4ccco4)nn(C)c3nc2c1`, the AC40 was 11.6 µM and 16.6 µM. Take `CC(C)(C)COC(=O)CSc1n[nH]c(=O)[nH]c1=O`: the AC40 is 12.5 µM.

As to `O=C(Nc1nnc(-c2cccnc2)o1)C1CCCCC1`, the AC40 is > 100 µM (inactive).

Turning to `O=C(Cc1ccc(-c2ccccc2)cc1)NC1COC1`, the AC40 was > 100 µM (inactive). Same read-out and setting: in the case of `COc1ccccc1-c1nnc(NC(=O)C2CCCCC2)o1` it was > 100 µM (inactive). Still for that read-out and setting: in the case of `Cc1cc2cc3c(NC(=O)c4ccco4)nn(C)c3nc2cc1C` it was 42.4 µM; in that of `Cc1cc2nc3c(cc2cc1F)c(NC(=O)c1ccco1)nn3C`, 37.2 µM.

Turning to `O=c1ncn(-c2cc(Cl)cc(Cl)c2)c2ccccc12`, the AC40 was 4.71 µM. In the case of `CCCCCCCCCC(=O)C(O)CC` (stereo not drawn), the AC40 is 5.27 µM. Same read-out and setting: in the case of `Cn1nc(NC(=O)c2ccco2)c2ccccc21` it was > 100 µM (inactive); in that of `O=C(Nc1nnc(-c2ccc3c(c2)OCCO3)o1)C1CCCCCC1`, > 100 µM (inactive). Consider `O=C(Cc1ccc(-c2ccccc2)cc1)N[C@@H]1CCOC1` (racemic), for which the AC40 was 96.9 µM.

System in a further experiment: not listed separately
Described as above. Conditions: V. cholerae BH1578 lux luminescence induction, 6 h; at 35 µM (top of the series).
Turning to `O=C(CC1CCCCC1)Nc1nnc(-c2ccc3c(c2)CCCC3)o1`, the activation is 0.052% (inactive).

The experiment is the same for the next values; noted with them: V. cholerae BH1578 lux luminescence induction, 6 h; at 80 µM (top of the series).
As to `Cc1ccc2c(=O)ncn(-c3cccc(Cl)c3)c2c1`, the activation is 0.04% (inactive). `COc1ccc2c(=O)ncn(-c3cccc(Cl)c3)c2c1`: the activation was 0.036% (inactive).

Consider `O=c1ncn(Cc2ccc(Cl)cc2)c2ccccc12`, for which the activation is 0.451% (inactive). In the case of `Cc1ccc(-n2cnc(=O)c3ccccc32)cc1Cl`, the activation is 0.07% (inactive). On to `NC(=O)c1ccccc1Nc1cccc(Cl)c1`, for which the activation is 0.057% (inactive). On the same count and under the same terms, in the case of `O=c1ncn(-c2cccc(Cl)c2)c2ccc(Cl)cc12` it was 8.89% (inactive).

For the compound `CCc1nc(=O)c2ccccc2n1-c1cccc(Cl)c1`, the activation is 0.079% (inactive). On the same count and under the same terms, in the case of `COC(=O)c1ccccc1Nc1cccc(Cl)c1` it was 0.61% (inactive); in that of `O=C(Nc1nnc(-c2ccc3c(c2)CCCC3)o1)C1CCC1`, 0% (inactive). Still for that read-out and setting: in the case of `Cc1ccc2c(c1)c(=O)ncn2-c1cccc(Cl)c1` it was 6.29% (inactive); in that of `O=c1ncn(-c2ccc(F)c(Cl)c2)c2ccccc12`, 9.82% (inactive); in that of `O=C(Nc1nnc(-c2cccc(Cl)c2)o1)C1CCCCC1`, 0.061% (inactive). Still for that read-out and setting: in the case of `O=C(Nc1nnc(-c2ccc(Cl)cc2)o1)C1CCCCC1` it was -0.011% (inactive); in that of `O=c1nc(-c2ccccc2)n(-c2cccc(Cl)c2)c2ccccc12`, -0.006% (inactive); in that of `O=c1[nH]cnc2ccccc12`, 0.09% (inactive). For `O=C1C(=O)N(Cc2cccc(Cl)c2)c2ccccc21`, the activation is 0.06% (inactive). The same measure, in the same setting: in the case of `O=c1ncn(-c2ccc(Cl)cc2)c2ccccc12` it was 0.028% (inactive); in that of `O=c1nc(Cc2ccccc2)n(-c2cccc(Cl)c2)c2ccccc12`, 3.07% (inactive). The same measure, in the same setting: in the case of `O=C1C(=O)N(Cc2ccccc2Cl)c2ccccc21` it was 0.075% (inactive); in that of `Cc1ccc2cc3c(NC(=O)c4ccoc4)nn(C)c3nc2c1`, 0.029% (inactive).

On to `CCOC(=O)c1ccccc1Nc1cccc(Cl)c1`, for which the activation was 0.006% (inactive). Turning to `Cc1ccc2cc3c(NC(=O)C4CCCC4)nn(C)c3nc2c1`, the activation was 11.2% (inactive). Same read-out and setting: in the case of `O=C(CSc1nc2ccccc2c(=O)[nH]1)NC1CCCCC1` it was 0.004% (inactive).

For the compound `O=C(Nc1nnc(-c2ccc3c(c2)OCCO3)o1)C1CCCC1`, the activation was 1.99% (inactive). The same measure, in the same setting: in the case of `COc1cccc(-n2cnc(=O)c3ccccc32)c1` it was 2.59% (inactive); in that of `CCC(C)(C)C(=O)Nc1nnc(-c2ccc3c(c2)OCCO3)o1`, -0.001% (inactive).

For `O=c1ncn(-c2cccc(Cl)c2)c2cccc(Cl)c12`, the activation is 0.031% (inactive). Same read-out and setting: in the case of `Cn1cnc(=O)c2ccccc21` it was 0.029% (inactive); in that of `O=c1ncn(-c2ccc(Cl)c(Cl)c2)c2ccccc12`, 0.032% (inactive). On the same count and under the same terms, in the case of `O=C(O)c1ccccc1Nc1cccc(Cl)c1` it was 0.008% (inactive); in that of `COc1ccc(-n2cnc(=O)c3ccccc32)cc1Cl`, 0.3% (inactive); in that of `O=C(CC1CCCCC1)Nc1nnc(-c2cccnc2)o1`, -0.004% (inactive). On the same count and under the same terms, in the case of `O=c1ncn(-c2ccccc2Cl)c2ccccc12` it was 1.17% (inactive). Consider `O=c1ncn(-c2cccc(Cl)c2)c2cc(Cl)ccc12`, for which the activation was 0.074% (inactive). For the compound `O=C(CSc1nc2c(c(=O)[nH]1)CCCC2)NC1CCCCC1`, the activation is 0.193% (inactive). Still for that read-out and setting: in the case of `NC(=O)c1ccccc1Nc1ccccc1` it was 0.161% (inactive); in that of `Cc1nc(=O)c2ccccc2n1-c1cccc(Cl)c1`, 18.8% (inactive).

Staying with this experiment, now noted: V. cholerae BH1578 lux luminescence induction, 6 h; at 100 µM (top of the series).
Consider `COc1ccc(-c2nnc(NC(=O)C3CCCCC3)o2)cc1`, for which the activation was 17.9% (inactive). The same measure, in the same setting: in the case of `C(=N\c1nnc(-c2ccc3c(c2)OCCO3)o1)/c1ccccc1` it was 0.004% (inactive). Still for that read-out and setting: in the case of `CCn1nnnc1NC(C)c1ccc(N2CCCC2)cc1` (stereo not drawn) it was 11.5% (inactive).

For `O=C(Nc1nnc(-c2ccc3c(c2)OCCO3)o1)C1CC1`, the activation is 0.001% (inactive). Still for that read-out and setting: in the case of `CCn1nnnc1N` it was -0.013% (inactive). The same measure, in the same setting: in the case of `O=C(Cc1ccc(-c2ccccc2)cc1)NC1CNC1` it was 0.01% (inactive); in that of `Cc1ccc2cc3c(NC(=O)c4cc5ccccc5o4)nn(C)c3nc2c1`, 0.014% (inactive). Same read-out and setting: in the case of `COc1ccc(S(=O)(=O)Nc2nnc(-c3ccc4c(c3)OCCO4)o2)cc1` it was 0.003% (inactive); in that of `Cc1ccc2cc3c(NC(=O)c4ccc(C)o4)nn(C)c3nc2c1`, 1.77% (inactive); in that of `COc1ccc(-c2nnc(NC(C)=O)o2)cc1`, 0.028% (inactive). As for `CC(C)c1ccc2cc3c(NC(=O)c4ccco4)nn(C)c3nc2c1`, the activation is 0.153% (inactive). For `O=C(Nc1nnc(-c2ccc3c(c2)OCCO3)o1)C1CCC1`, the activation was 0.037% (inactive). Same read-out and setting: in the case of `COc1cccc(-c2nnc(NC(=O)C3CCCCC3)o2)c1` it was -0.002% (inactive); in that of `CC(C)(C)OC(=O)N1CCC(C(=O)Nc2nnc(-c3ccc4c(c3)OCCO4)o2)CC1`, 0.011% (inactive); in that of `O=C(Nc1nnc(-c2ccc3c(c2)OCCO3)o1)C(F)(F)c1ccccc1`, -0.004% (inactive).

For the compound `O=C(Nc1nnc(-c2ccccc2Cl)o1)C1CCCCC1`, the activation is 0.003% (inactive). With `Cn1nc(NC(=O)c2ccco2)c2cc3ccc(C(C)(C)C)cc3nc21`, the activation was 0% (inactive). The same measure, in the same setting: in the case of `O=C(Nc1nnc(C2CCCC2)o1)C1CCCCC1` it was -0.003% (inactive). Still for that read-out and setting: in the case of `CN1CCC(C(=O)Nc2nnc(-c3ccc4c(c3)OCCO4)o2)CC1` it was 0.02% (inactive); in that of `O=C(Nc1nnc(-c2ccncc2)o1)C1CCC1`, 0.028% (inactive); in that of `O=S(=O)(Nc1nnc(-c2ccc3c(c2)OCCO3)o1)c1ccc(Cl)cc1`, -0.004% (inactive). On to `Cn1ccc(NC(=O)c2ccco2)n1`, for which the activation is 0.036% (inactive). With `CCn1nnnc1/N=C/c1ccc(N2CCCCC2)cc1`, the activation is 0.106% (inactive). The same measure, in the same setting: in the case of `Cc1ccc2cc3c(NC(=O)Cc4ccco4)nn(C)c3nc2c1` it was 0.407% (inactive); in that of `c1ccc(CNc2nnc(-c3ccc4c(c3)OCCO4)o2)cc1`, 0.001% (inactive).

Regarding `CN(C)/C=N/c1nnc(-c2ccc3c(c2)OCCO3)o1`, the activation is 0.022% (inactive). As for `O=C(Nc1nnc(-c2cccnc2)o1)C1CCC1`, the activation is -0.001% (inactive). As for `Cc1ccc2cc3c(NC(=O)c4ccccn4)nn(C)c3nc2c1`, the activation was -0.001% (inactive).
